Data published in patent US20250312360A1, “MITOCHONDRIAL ANTIOXIDANT TREATMENT FOR CASK-LINKED NEURODEVELOPMENTAL DISORDERS” (Virginia Tech Intellectual Properties, Inc., priority 2022, published 2025).
Entries after “also recorded” stand apart in the source; their conditions may differ.

Experiments:
[1] = system: CASK^floxed; Calb2-cre mice; assay: Accelerating rotarod experiment (locomotor coordination/balance); format: in vivo; conditions: P70, n=3, p≤0.05, untreated mice cannot balance on rotarod, FIG. 5B
Text: (§1) FIG. 5A-5B.-Blocking mitochondrial ROS protects cerebellum from degenerating in absence of CASK. […] Cerebellum undergoes atrophy after P30. […] (FIG. 5B) Cerebellum undergoes atrophy in CASK^floxed; Calb2-cre mice leading to locomotor incoordination. The data represents latency time to fall in an accelerating rotarod experiment on P70. CASK^floxed. […] Data represents mean and SEM from n=3. * indicates p≤ 0.05.

[2] = system: CASK^floxed; Calb2-cre mice; assay: Cerebellar atrophy/degeneration after CASK deletion in cerebellum, images of cerebellum with SkQ1 treatment; format: in vivo
Text: as §1
With no evidence for a defect in neuronal development and biochemical evidence for mitochondrial ROS mediated neuronal death, Applicant next decided to determine if CASK loss results in the degeneration of formed neurons. In the human brain without CASK, Applicant observed astrogliosis as well as microgliosis, both hallmarks of neuronal damage and neuronal loss (Patel, Hegert et al., 2022). In the setting of a human brain without CASK, the presumptive neuronal loss occurs during the early development of the cerebellum, making it hard to further interpret the results. […]

## CC1=C(C)C(=O)C(CCCCCCCCCC[P+](c2ccccc2)(c2ccccc2)c2ccccc2)=CC1=O [SkQ1, 10-(6′-Plastoquinonyl)decyltriphenylphosphonium]
[1]
  latency time to fall in accelerating rotarod experiment (balance): balance is completely rescued
[2]; CASK^floxed, untreated cerebellum atrophies after P30 (P30 vs P100 images), FIG. 5A right panel SkQ1-treated
  cerebellar atrophy (images of cerebellum): rescue of cerebellar atrophy
[2]; CASKfloxed, summary statement on FIG. 5A-5B
  cerebellar degeneration / neurodegeneration caused by CASK deletion: can halt CASK-linked cerebellar degeneration; also recorded: effectively inhibits neurodegeneration resulting from CASK-loss
